Results taken from publication PMC12655529, “Serendipitous Hinge Modulation Hypothetically Reprograms Caerin 1.1-LC Antibacterial Mechanism and Gram-Negative Selectivity” (Pharmaceutics, 2025).
Converted amounts (≈) assume the structure as drawn. Square brackets hold non-standard residues; d marks the D form. Ends that are not written are not given here. Peptide text beside a SMILES is read from it.

Columns and labels:
[1] = system: Pseudomonas aeruginosa ATCC 9027; assay type: cell-based
Protocol: (§1) The antimicrobial activities of the peptides were evaluated by determining their minimal inhibitory concentration (MIC) and minimal bactericidal concentration (MBC) values following reported protocols [20]. The tested microorganisms included seven Gram-negative bacterial strains (Escherichia coli ATCC 8739, E. coli ATCC-BAA 2340, E. coli NCTC 13846, Klebsiella pneumoniae ATCC 43816, K. pneumoniae ATCC BAA-2342, Pseudomonas aeruginosa ATCC 9027, Acinetobacter baumannii ATCC BAA-747), three Gram-positive bacterial strains (Staphylococcus aureus ATCC 6538, Enterococcus faecalis NCTC 12697, MRSA NCTC 12493, and the fungal strain Candida albicans ATCC 10231. For the assay, each bacterial strain was cultured overnight at 37 °C in 100 mL of medium in a flask. The cultures were then subcultured to reach the logarithmic growth phase and diluted to 5 × 10^5 CFU/mL. Peptide samples were serially diluted two-fold in microplates, with concentrations ranging from 128 μM to 1 μM. The diluted bacterial suspensions were mixed with the peptide solutions and incubated overnight at 37 °C. The MIC values were determined by measuring the absorbance of each well using a Synergy HT plate reader (Agilent, Cheshire, UK). For MBC determination, aliquots from wells showing no visible growth were inoculated onto agar plates to assess bacterial viability. Each experiment was repeated independently three times and conducted in three independent replicates.

[2] = system: Staphylococcus aureus ATCC 6538; assay type: cell-based; settings: ATCC 6538
Protocol: as §1

MRSA NCTC 12493 = assay type: cell-based, Staphylococcus aureus
Protocol: as §1

[3] = system: Acinetobacter baumannii ATCC BAA-747; assay type: cell-based; settings: ATCC BAA-747
Protocol: as §1

[4] = system: K. pneumoniae ATCC BAA-2342; assay type: cell-based, Klebsiella pneumoniae
Protocol: as §1

[5] = system: Klebsiella pneumoniae ATCC 43816; assay type: cell-based; settings: ATCC 43816
Protocol: as §1

Gram-positive bacteria = test: Geometric mean MIC and therapeutic index, Gram-positive; assay type: cell-based; settings: geometric mean of MICs
horse red blood cells = test: Haemolysis assay; assay type: cell-based; settings: concentration inducing 10% haemolysis of horse erythrocytes; 4% (v/v) in PBS, 2 h, 37 °C, absorbance 570 nm; no haemolysis at maximum testing concentration (128 μM) recorded as 256 μM
Protocol: The peptide cytotoxicity against mammalian erythrocytes was evaluated by haemolysis assay on horse red blood cells (E&O Laboratories Ltd., Falkirk, UK). Fresh horse blood was washed three times with PBS and resuspended to a final concentration of 4% (v/v) in PBS. The diluted blood suspension was then mixed with peptide solutions at varying concentrations and incubated for 2 h at 37 °C. Red blood cell suspensions treated with 0.1% Triton X-100 and PBS were used as controls. The Triton X-100-treated suspension was the positive control (for 100% haemolysis), while the PBS-treated suspension was the blank control. Following incubation, the mixtures were centrifuged at 1000× g for 10 min to separate erythrocytes from the supernatant. The absorbance of the supernatants was detected at 570 nm. The percentage haemolysis was calculated by following the equationPercentage Haemolysis = (AbsSample − AbsBlank)/(AbsPositive − AbsBlank) × 100%

E. coli ATCC BAA-2340 = assay type: cell-based, Escherichia coli
Protocol: as §1

[6] = system: Enterococcus faecalis NCTC 12697; assay type: cell-based; settings: NCTC 12697
Protocol: as §1

Gram-negative bacteria = test: Geometric mean MIC and therapeutic index, Gram-negative; assay type: cell-based; settings: geometric mean of MICs
[7] = system: Escherichia coli ATCC 8739; assay type: cell-based; settings: ATCC 8739
Protocol: as §1

E. coli NCTC 13846 = assay type: cell-based, Escherichia coli
Protocol: as §1

E. coli (ATCC-BAA 2340) = assay type: cell-based, Escherichia coli; settings: ATCC-BAA 2340
Protocol: The peptide sensitivity was determined in different salt- and serum-containing environments. Bacterial strains were prepared following the MIC detection protocol described previously. To evaluate peptide sensitivity under physiological conditions, various concentrations of salt ions (150 mM NaCl, 4.5 mM KCl, 2 mM CaCl2, 1 mM MgCl2, 8 µM ZnCl2, 6 µM NH4Cl, or 4 µM FeCl3) and serum (10% FBS) were prepared in McCartney bottles prior to the addition of bacterial suspensions. The subcultured bacterial suspensions were then introduced to these modified media conditions. For MIC determination, the treated bacterial suspensions were diluted and dispensed into 96-well plates containing peptide solutions at graded concentrations. This assay allowed for the detection of potential alterations in MIC values, serving as an indicator of peptide sensitivity under different physiological conditions. All experiments were independently repeated three times, each with three replicates.

Row | Molecule | MBC, P. aeruginosa (ATCC 9027) [1] | MIC, P. aeruginosa (ATCC 9027) [1] | MBC, S. aureus (ATCC 6538) [2] [µM] | MIC, S. aureus (ATCC 6538) [2] [µM] | MBC, MRSA (NCTC 12493) (MRSA NCTC 12493) [µM] | MIC, MRSA (NCTC 12493) (MRSA NCTC 12493) [µM] | MBC, A. baumannii (ATCC BAA-747) [3] [µM] | MIC, A. baumannii (ATCC BAA-747) [3] [µM] | MBC, K. pneumoniae (ATCC BAA-2342) [4] [µM] | MIC, K. pneumoniae (ATCC BAA-2342) [4] [µM] | MBC, K. pneumoniae (ATCC 43816) [5] [µM] | MIC, K. pneumoniae (ATCC 43816) [5] [µM] | GM MIC Gram-Positive (Gram-positive bacteria) [µM] | HC10 (horse red blood cells) [µM] | MBC, E. coli (ATCC BAA-2340) (E. coli ATCC BAA-2340) [µM] | MIC, E. coli (ATCC BAA-2340) (E. coli ATCC BAA-2340) [µM] | MBC, E. faecalis (NCTC 12697) [6] [µM] | MIC, E. faecalis (NCTC 12697) [6] [µM] | GM MIC Gram-Negative (Gram-negative bacteria) [µM] | MBC, E. coli (ATCC 8739) [7] [µM] | also measured
1 | GLLSVLGSLKKIVPKAVPKIAEKL-NH2 [Caerin 1.1-LC 11K.19K.PKAVP] | 64 µM | 32 µM | >128 | >128 | 64 | 64 | 128 | 128 | >128 | >128 | 64 | 64 | 161.5 | 256 | 8 | 8 | >128 | >128 | 26.08 | 8 | MIC, E. coli (ATCC 8739) [7]: 8 µM; MBC, E. coli (NCTC 13846) (E. coli NCTC 13846): 2 µM; MIC, E. coli (NCTC 13846) (E. coli NCTC 13846): 2 µM
2 | GLLSVLGSLKKIVPHVVPWIAKKL-NH2 [Caerin 1.1-LC 11K.12K.19W] | 4/4 µM | 4/4 µM | 2 | 2 | 2 | 2 | 4 | 4 | 4 | 4 | 4 | 4 | 2.97 | 10.5 | 2 | 2 | 32 | 16 | 4 | 2 | MIC, Ca^2+ (E. coli (ATCC-BAA 2340)): 8 µM; MIC, Control (E. coli (ATCC-BAA 2340)): 4 µM; MIC, FBS (E. coli (ATCC-BAA 2340)): 8 µM; MIC, Fe^3+ (E. coli (ATCC-BAA 2340)): 4 µM; MIC, K^+ (E. coli (ATCC-BAA 2340)): 4 µM; MIC, Mg^2+ (E. coli (ATCC-BAA 2340)): 4 µM; MIC, NH4^+ (E. coli (ATCC-BAA 2340)): 4 µM; MIC, Na^+ (E. coli (ATCC-BAA 2340)): 4 µM; MIC, E. coli (ATCC 8739) [7]: 2 µM; MBC, E. coli (NCTC 13846) (E. coli NCTC 13846): 4 µM; MIC, E. coli (NCTC 13846) (E. coli NCTC 13846): 2 µM
3 | GLLSVLGSLKLIVPHLLPLIAEKL-NH2 [Caerin 1.1-LC PHLLP] | 64 µM | 32 µM | 4 | 4 | 4 | 4 | 8 | 4 | 16 | 8 | 8 | 8 | 6.56 | 1.6 | 4 | 4 | 32 | 32 | 8 | 8 | MIC, E. coli (ATCC 8739) [7]: 4 µM; MBC, E. coli (NCTC 13846) (E. coli NCTC 13846): 4 µM; MIC, E. coli (NCTC 13846) (E. coli NCTC 13846): 4 µM
4 | GLLSVLGSLKKIVPHVVPLIAEKL-NH2 [Caerin 1.1-LC 11K] | 32 µM | 16 µM | 32 | 8 | 8 | 8 | 32 | 32 | 16 | 8 | 32 | 16 | 20.1 | 35.8 | 8 | 2 | 128 | 128 | 8.8 | 16 | MIC, E. coli (ATCC 8739) [7]: 8 µM; MBC, E. coli (NCTC 13846) (E. coli NCTC 13846): 8 µM; MIC, E. coli (NCTC 13846) (E. coli NCTC 13846): 4 µM
5 | CC[C@H](C)[C@H](NC(=O)[C@H](CCCCN)NC(=O)[C@@H]1CCCN1C(=O)[C@@H](CC(C)C)NC(=O)[C@H](C)NC(=O)[C@H](CCCCN)NC(=O)[C@@H]1CCCN1C(=O)[C@@H](NC(=O)[C@@H](NC(=O)[C@H](CC(C)C)NC(=O)[C@H](CCCCN)NC(=O)[C@H](CC(C)C)NC(=O)[C@H](CO)NC(=O)CNC(=O)[C@H](CC(C)C)NC(=O)[C@@H](NC(=O)[C@H](CO)NC(=O)[C@H](CC(C)C)NC(=O)[C@H](CC(C)C)NC(=O)CN)C(C)C)[C@@H](C)CC)C(C)C)C(=O)N[C@@H](C)C(=O)N[C@@H](CCC(=O)O)C(=O)N[C@@H](CCCCN)C(=O)N[C@@H](CC(C)C)C(N)=O [Caerin 1.1-LC PKAL(D)P] (H-GLLSVLGSLKLIVPKA[dL]PKIAEKL-NH2; N-terminus assumed) | 4/4 µM | 4/4 µM | 32 (≈ 80 µg/mL) | 32 (≈ 80 µg/mL) | 8 (≈ 20 µg/mL) | 4 (≈ 10 µg/mL) | 32 (≈ 80 µg/mL) | 32 (≈ 80 µg/mL) | 4 (≈ 10 µg/mL) | 4 (≈ 10 µg/mL) | 4 (≈ 10 µg/mL) | 4 (≈ 10 µg/mL) | 64 | 43.4 | 2 (≈ 5 µg/mL) | 2 (≈ 5 µg/mL) | >128 | >128 | 4.87 | 2 (≈ 5 µg/mL) | MIC, Ca^2+ (E. coli (ATCC-BAA 2340)): 128 µM (≈ 320 µg/mL); MIC, Control (E. coli (ATCC-BAA 2340)): 2 µM (≈ 5 µg/mL); MIC, FBS (E. coli (ATCC-BAA 2340)): 16 µM (≈ 40 µg/mL); MIC, Fe^3+ (E. coli (ATCC-BAA 2340)): 2 µM (≈ 5 µg/mL); MIC, K^+ (E. coli (ATCC-BAA 2340)): 2 µM (≈ 5 µg/mL); MIC, Mg^2+ (E. coli (ATCC-BAA 2340)): 16 µM (≈ 40 µg/mL); MIC, NH4^+ (E. coli (ATCC-BAA 2340)): 2 µM (≈ 5 µg/mL); MIC, Na^+ (E. coli (ATCC-BAA 2340)): 4 µM (≈ 10 µg/mL); MIC, E. coli (ATCC 8739) [7]: 2 µM (≈ 5 µg/mL); MBC, E. coli (NCTC 13846) (E. coli NCTC 13846): 8 µM (≈ 20 µg/mL); MIC, E. coli (NCTC 13846) (E. coli NCTC 13846): 8 µM (≈ 20 µg/mL)
6 | GLLSVLGSLKLIVPHWWPLIAEKL-NH2 [Caerin 1.1-LC PHWWP] | >128 µM | >128 µM | >128 | >128 | >128 | >128 | >128 | >128 | >128 | >128 | >128 | >128 | 256 | 256 | 32 | 16 | >128 | >128 | 105 | 64 | MIC, E. coli (ATCC 8739) [7]: 32 µM; MBC, E. coli (NCTC 13846) (E. coli NCTC 13846): 128 µM; MIC, E. coli (NCTC 13846) (E. coli NCTC 13846): 64 µM
7 | GLLSVLGSLKLIVAHVVALIAEKL-NH2 [Caerin 1.1-LC 2P-2A] | >128 µM | >128 µM | >128 | >128 | >128 | >128 | >128 | >128 | >128 | >128 | >128 | >128 | 256 | 256 | >128 | >128 | >128 | >128 | 256 | >128 | MIC, E. coli (ATCC 8739) [7]: >128 µM; MBC, E. coli (NCTC 13846) (E. coli NCTC 13846): >128 µM; MIC, E. coli (NCTC 13846) (E. coli NCTC 13846): >128 µM
